For 15 compounds, MIC results are on record in ChEMBL document CHEMBL3627600, “Rapid synthesis and antimicrobial activity of novel 4-oxazolidinone heterocycles” (2015).

The structures appear in SMILES notation. In brackets after ≈: the same amount, converted by molar mass.

Holding throughout (type): functional
The subject of assay [1] is Staphylococcus aureus. In words: Antimicrobial activity against methicillin-resistant Staphylococcus aureus ATCC 33591.
Assay [2] concerns Acinetobacter baumannii. The assay can be described thus: Antimicrobial activity against Acinetobacter baumannii ATCC 19606.
In assay [3] the test system is Staphylococcus aureus. In words: Antimicrobial activity against Staphylococcus aureus ATCC 29213.

On to `CC(=O)NC[C@H]1CN(c2ccc(N3CCOCC3)c(F)c2)C(=O)O1` [LINEZOLID], for which the MIC (as a rule, the least concentration at which growth counts as inhibited) in assay [1] was 1 µg/mL (≈ 2.96 µM); in assay [2] it was over 128 µg/mL; in assay [3], 0.5 µg/mL (≈ 1.48 µM).

Consider `CCCCCC1NC(=O)/C(=C/c2ccc(C(C)(C)C)cc2)O1` (stereo not drawn), for which the MIC in assay [1], in assay [2] and in assay [3] was over 128 µg/mL each time.

For `CCCCCC1NC(=O)/C(=C/c2cc(Br)c(OC)c(Br)c2)O1` (stereo not drawn), the MIC was 32 µg/mL (≈ 73.9 µM) in assay [1], over 128 µg/mL in assay [2] and 16 µg/mL (≈ 36.9 µM) in assay [3].

As to `CCCCCC1NC(=O)/C(=C/c2ccc(OC)cc2)O1` (stereo not drawn), the MIC in assay [1], in assay [2] and in assay [3] was over 128 µg/mL throughout.

Take `CCCCCC1NC(=O)/C(=C/c2ccc(Cl)cc2)O1` (stereo not drawn): the minimal inhibitory concentration (MIC) in assay [1], in assay [2] and in assay [3] was over 128 µg/mL throughout.

`CCCCCC1NC(=O)/C(=C/c2ccc(F)cc2)O1` (stereo not drawn): the MIC in assay [1], in assay [2] and in assay [3] was over 128 µg/mL in each case.

The compound `CN[C@H](CC(C)C)C(=O)N[C@H]1C(=O)N[C@@H](CC(N)=O)C(=O)N[C@H]2C(=O)N[C@H]3C(=O)N[C@H](C(=O)N[C@H](C(=O)O)c4cc(O)cc(O)c4-c4cc3ccc4O)[C@H](O)c3ccc(c(Cl)c3)Oc3cc2cc(c3O[C@@H]2O[C@H](CO)[C@@H](O)[C@H](O)[C@H]2O[C@H]2C[C@](C)(N)[C@H](O)[C@H](C)O2)Oc2ccc(cc2Cl)[C@H]1O` [VANCOMYCIN] gave an MIC in assay [2] of over 128 µg/mL.

`COc1c(Br)cc(/C=C2\O[C@H]([C@@H](Cl)CCNC(=N)N)NC2=O)cc1Br`: the values for the MIC in assay [1], in assay [2] and in assay [3] were 20 µg/mL (≈ 40.3 µM), 100 µg/mL (≈ 201 µM) and 12.5 µg/mL (≈ 25.2 µM), respectively.

On to `CCCCCC1NC(=O)/C(=C/c2ccccc2)O1` (stereo not drawn), for which the minimal inhibitory concentration (MIC) in assay [1] was 128 µg/mL (≈ 522 µM); in assay [2], over 128 µg/mL; in assay [3] it was 64 µg/mL (≈ 261 µM).

On to `CCCCCC1NC(=O)/C(=C/c2ccc(C(F)(F)F)cc2)O1` (stereo not drawn), for which the values for the MIC in assay [1], in assay [2] and in assay [3] were 16 µg/mL (≈ 51.1 µM), over 128 µg/mL and 16 µg/mL (≈ 51.1 µM), respectively.

`CCCCCC1NC(=O)/C(=C/c2ccc([N+](=O)[O-])cc2)O1` (stereo not drawn): the results for the MIC in assay [1], in assay [2] and in assay [3] were 32 µg/mL (≈ 110 µM), over 128 µg/mL and 32 µg/mL (≈ 110 µM), respectively.

With `CN(C)[C@@H]1C(O)=C(C(N)=O)C(=O)[C@@]2(O)C(O)=C3C(=O)c4c(O)cccc4[C@@](C)(O)[C@H]3C[C@@H]12` [TETRACYCLINE], the MIC in assay [1] was found to be 128 µg/mL (≈ 288 µM); in assay [2], 2 µg/mL (≈ 4.5 µM); in assay [3], 0.25 µg/mL (≈ 0.563 µM).

`CCCCCC1NC(=O)/C(=C/c2ccc(C)cc2)O1` (stereo not drawn): the MIC in assay [1] was over 128 µg/mL; in assay [2], over 128 µg/mL; in assay [3], 32 µg/mL (≈ 123 µM).

Take `CCCCCC1NC(=O)/C(=C/c2ccccc2[N+](=O)[O-])O1` (stereo not drawn): the MIC in assay [1], in assay [2] and in assay [3] was over 128 µg/mL each time.

For the compound `COc1c(Br)cc(/C=C2\O[C@H](CCCNC(=N)N)NC2=O)cc1Br`, the MIC is 32 µg/mL (≈ 69.2 µM) in assay [1], over 128 µg/mL in assay [2] and 32 µg/mL (≈ 69.2 µM) in assay [3].
